Reference: a melting point compilation (Tetko et al.; mined from patent text by program, amines drawn as free bases though some values may be those of a salt)

Row | Structure (SMILES) | melting point
1 | CCOC(=O)c1ccc2c(c1)S[C@@H](c1ccc(OC)cc1)[C@@H](OC(C)=O)C(=O)N2CCN(C)C (racemic) | 167 to 171 °C
2 | Nc1ccc2ccc(Oc3ccc(Cl)c(Cl)c3)nc2n1 | 206 °C
3 | Cc1cc(-n2cncn2)cc(C=O)c1N | 209 to 211 °C
4 | COc1cccc(OC)c1S(=O)(=O)OCC(=NNc1ccccc1)c1ccccc1 | 168 °C
5 | CCOC(=O)c1c(CCl)nc2sc(C)c(C)c2c1-c1ccc(Cl)cc1 | 132 to 144 °C
6 | Cc1nc2cccc(C)n2c(=O)c1CCN1CCN(c2cccc(Cl)c2)CC1 | 116 to 118 °C
7 | COc1ccc(Sc2cnc(N)s2)cc1 | 119 to 120 °C
8 | O=C(O)c1ccc(NCCCOc2cccc3ccccc23)cc1 | 146 to 147 °C
9 | CC12C=CCC1C1CCC3=CC(=O)CCC3C1CC2 (stereo unspecified) | 67 to 71 °C
10 | CC1(C)CCc2c(N3CCCC3)nc3sc4c(NCc5cncc6ccccc56)ncnc4c3c2C1 | 276 to 277 °C
11 | CCn1c(=O)ccc2cnc(Nc3ccccc3)nc21 | 203 to 204 °C
12 | O=C1c2c(ccc3c2OCCO3)S(=O)(=O)N1CCCCO | 119 to 122 °C
13 | O=[N+]([O-])c1cc(F)c(Cl)cc1Cl | 39 to 42 °C
14 | Cc1cccc(N(c2cccc(C)c2)c2c(N(c3cccc(C)c3)c3cccc(C)c3)c3ccccc3c3ccccc23)c1 | 223 to 224 °C
15 | CN(C(=O)CN1C(=O)c2ccccc2C1=O)c1ccc(Cl)c(CO)c1Cl | 236 to 241 °C
16 | NC(=NC(=O)c1nc(Cl)c(N)nc1N)NCCCCc1ccc(OCC(=O)N(CCO)CCO)cc1 | 114 to 116 °C
17 | O=c1oc(=O)n(-c2ccccc2)c2ccccc12 | 183 °C
18 | Oc1cccc2c1c1cccc(F)c1n2Cc1ccccc1 | 155 to 156 °C
19 | Fc1cc(Cl)ccc1-n1nc2c(c1Cl)CCC2 | 102 to 104 °C
20 | CCS(=O)(=O)c1ccc(C(=O)NCc2ccc3c(c2)CN(C2CCC(=O)NC2=O)C3=O)cc1 (stereo unspecified) | 222 to 224 °C
21 | Cc1cc(N)nc(/C=C/c2nc3cc(Br)cnc3[nH]2)c1 | 280 °C

Row | Structure (SMILES) | melting point
22 | CCOC(=O)CCc1cn(-c2ccccc2)nc1OCc1ccccc1 | 123 to 124 °C
23 | CN(CC(F)(F)F)C(=O)COc1nnc(-c2ccccc2)s1 | 123 °C
24 | CN(C)S(=O)(=O)c1cccc2c1Sc1ccc(OCc3ccccc3)cc1N2CCCCl | 124 to 126 °C
25 | CCCCCCC(Oc1ccc(C2=CCCCCC2)cc1)C(=O)O (stereo unspecified) | 59 to 60 °C
26 | CNC(=O)c1c(-c2ccccn2)c2ccccc2n(C)c1=O | 239 to 240 °C
27 | Cc1cc2c(c(C)c1O)CCC(C)(C#N)O2 (stereo unspecified) | 135 °C
28 | N#Cc1c(N2CCN(C(=O)c3cccs3)CC2)c2ccccc2[nH]c1=O | 264 °C
29 | CCOC(=O)COc1ccc2c(c1)C(=O)CCC2 | 84 to 86 °C
30 | O=C(CCNC(=O)[C@@H](O)Cc1ccccc1)OCc1ccccc1 | 34 to 38 °C
31 | CC#CC(Cc1ccccc1)n1nnc2cc3c(cc2c1=O)OC1CCCN1C3=O (stereo unspecified) | 160 to 162 °C
32 | c1ccc(CC2CCN(Cc3ccn(-c4ccccc4)c3)CC2)cc1 | 159 to 161 °C
33 | Cn1cc(-c2ccc(Cl)cc2Cl)c(=O)cc1C(F)(F)F | 205 to 206 °C
34 | COc1ccc(C=C(C#N)C#N)c2c1OC(C)(C)C2 | 198 to 200 °C
35 | CC(C)CC(=O)Nc1c(C(=O)c2cccc(Cl)c2)[nH]c2ccc([N+](=O)[O-])cc12 | 197 to 199 °C
36 | Cc1cc(OCc2ccccc2)c(F)cc1[N+](=O)[O-] | 95 °C
37 | CCCN(CCC)C1Cc2cccc3c2N(CCC3)C1 (stereo unspecified) | 112 to 116 °C
38 | Fc1c(F)c(F)c(CSc2nc3ccccc3s2)c(F)c1F | 51 to 53 °C
39 | COc1cc(C(C)C)c2c(c1)S(=O)(=O)N(COc1cc(C#N)nn1-c1ccc(Cl)cc1)C2=O | 135 °C
40 | COc1ccc(CNc2nc(-c3ccco3)c3ncn(Cc4ccc(OC)cc4)c3n2)cc1 | 153 to 154 °C
41 | Cc1ccc(NC(N)=S)nc1 | 178 to 181 °C
